In patent US6831075B2, “Heterocyclic substituted pyrazolones” (Cephalon, Inc., priority 1999, dated 2004):

Target: T1, recombinant human baculovirus-expressed FGFR1 cytoplasmic domain (Homo sapiens, UniProt P11362)
T1 construct: recombinant human baculovirus-expressed FGFR1 cytoplasmic domain; host or cells: baculovirus expression system
Test: FGFR1 kinase inhibition assay (ELISA-based, time-resolved fluorescence)
Type: biochemical
Conditions: 1 uM compound; 20 μM ATP
Method: Inhibition of Fibroblast Growth Factor Receptor-1 (FGFR1) Kinase Activity
The FGFR1 kinase activity was measured using an ELISA-based format in a 96-well FluoroNUNC Maxisorp plate with a time-resolved fluorescence readout as described for trkA kinase. The plate was coated with 100 μl/well of substrate solution (recombinant human PLC-γ/GST) at a concentration of 10 μg/ml in Tris buffered saline (TBS). The FDGFR1 activity was assayed in 100-μl assay micture containing 50 mM HEPES (pH 7.4), 20 μM ATP, 10 mM MnCl2, 0.1% BSA, 2% DMSO, and 15 ng/ml recombinant human baculovirus-expressed FGFR1 cytoplasmic domain (prephosphorylated prior to use). Compounds were screened for inhibition of the FGFR1 kinase activity at a conentration of 1 μM. The kinase reaction was allowed to proceed at 37° C. for 15 minutes. The detection antibody, europium-labeled anti-phosphotyrosine antibody (Wallace #CR04-100), was added at 1:5000 dilution in block buffer (3% BSA in TBST). After a 1-hour incubation at 37° C., 100 μl of enhancement solution (Wallac #1244-105) and the plate was gently agitated. After 5 min, the fluorescence of the resulting solutions measured using the BMG Fluostar (Model # 403).

T1 sequence (P11362 398-822 limits assumed): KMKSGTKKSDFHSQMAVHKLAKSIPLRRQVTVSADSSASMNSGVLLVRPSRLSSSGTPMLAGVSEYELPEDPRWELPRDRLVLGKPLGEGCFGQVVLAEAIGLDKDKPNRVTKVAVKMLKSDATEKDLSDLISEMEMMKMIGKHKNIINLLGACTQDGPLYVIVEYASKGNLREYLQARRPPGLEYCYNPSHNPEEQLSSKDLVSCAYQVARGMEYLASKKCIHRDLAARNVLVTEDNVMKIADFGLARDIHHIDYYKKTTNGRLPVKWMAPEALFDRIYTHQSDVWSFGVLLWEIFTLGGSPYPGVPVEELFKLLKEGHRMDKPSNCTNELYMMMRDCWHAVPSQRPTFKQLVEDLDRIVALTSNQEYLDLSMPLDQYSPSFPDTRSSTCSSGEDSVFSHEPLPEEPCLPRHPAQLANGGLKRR

Structure (SMILES) | inhibition at 1 µM | FGFR1 % inhibition @ 1 uM
O=C1NN=C(c2nccs2)C1=Cc1c[nH]c2ccccc12 [Compound 25, 4-(indol-3-ylmethylene)-3-(1,3-thiazol-2-yl)-2-pyrazolin-5-one] | 52% | –
O=C1NN=C(c2ccoc2)C1=Cc1c[nH]c2ccc(F)cc12 [Compound 19] | – | 23%
O=C1NN=C(c2ccco2)C1=Cc1cn(CCOCc2ccccc2)c2ccccc12 [Compound 71] | – | 26%
Cn1cc(C=C2C(=O)NN=C2c2nccs2)c2ccccc21 [Compound 60] | – | 66%
O=C1NN=C(c2ccco2)C1=Cc1c[nH]c2cccc(OCc3ccccc3)c12 [Compound 44] | – | 10%
COC(=O)c1ccc2[nH]cc(C=C3C(=O)NN=C3c3ccoc3)c2c1 [Compound 16] | – | 1%
O=C1NN=C(c2ccco2)C1=Cc1c[nH]c2ccccc12 [Compound 29, 3-(2-furyl)-4-(indol-3-ylmethylene)-2-pyrazolin-5-one] | 41% | –
Cc1cc(C)c(C=C2C(=O)NN=C2c2cnccn2)[nH]1 [Compound 74, 4-[(3,5-dimethylpyrrol-2-yl)methylene]-3-pyrazin-2-yl-2-pyrazolin-5-one] | 48% | –
Cc1ccc2c(C=C3C(=O)NN=C3c3ccn(C)c3)c[nH]c2c1 [Compound 33] | – | 27%
O=C1NN=C(c2ccoc2)C1=Cc1ccc[nH]1 [Compound 12] | – | 39%
Cc1cc(C)c(C=C2C(=O)NN=C2c2csc(-c3ccccc3)n2)[nH]1 [Compound 40] | – | 22%
Cc1cc(C)c(C=C2C(=O)NN=C2c2cccs2)[nH]1 [Compound 61] | – | 35%
N#CCCn1cc(C=C2C(=O)NN=C2c2cccs2)c2ccccc21 [Compound 66] | – | 29%
O=C1NN=C(c2ccoc2)C1=Cc1c[nH]c2ccc(OCc3ccccc3)cc12 [Compound 21] | – | 15%

Target: T2, baculoviral GST-MLK2KDLZ (Homo sapiens, UniProt Q02779)
T2 construct: 3 μg/ml of baculoviral GST-MLK2KDLZ; GST (N); host or cells: baculovirus expression system
Test: Mixed Lineage Kinase-2 inhibition assay (Millipore Multiscreen plate, 32P)
Type: biochemical
Conditions: 1 uM compound; 100 μM ATP
Method: Inhibition of Mixed Lineage Kinase-2 Activity
Assays were performed using the Millipore Multiscreen plate format as described for MLK1. Each 50-μl assay mixture contained 20 mM Hepes, pH 7, 1 mM EGTA, 10 mM MgCl2, 1 mM DTT, 25 mM β-glycerophosphate, 100 μM ATP, 0.25 μCi [γ-^32P]ATP, 0.1% BSA, 500 μg/ml myelin basic protein (UBI #13-104), 2% DMSO, various concentrations of test compound, and 3 μg/ml of baculoviral GST-MLK2KDLZ. Samples were incubated for 15 min. at 37° C. The reaction was stopped by adding ice cold 50% TCA and the proteins were allowed to precipitate for 30 min at 4° C. The plates were then washed with ice cold 25% TCA Supermix scintillation cocktail was added, and the plates were allowed to equilibrate for 1-2 hours prior to counting.

T2 sequence (Q02779 98-440 limits assumed): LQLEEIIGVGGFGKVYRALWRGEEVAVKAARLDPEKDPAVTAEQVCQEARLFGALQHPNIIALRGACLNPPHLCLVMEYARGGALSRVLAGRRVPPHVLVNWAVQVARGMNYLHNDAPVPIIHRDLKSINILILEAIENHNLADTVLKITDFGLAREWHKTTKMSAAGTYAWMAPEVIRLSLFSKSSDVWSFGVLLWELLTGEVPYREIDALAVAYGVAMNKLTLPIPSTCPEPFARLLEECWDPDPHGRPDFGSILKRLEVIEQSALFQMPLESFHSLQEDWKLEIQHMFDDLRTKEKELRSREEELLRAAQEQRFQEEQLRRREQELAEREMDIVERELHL

Structure (SMILES) | MLK-2 Kinase % inhibition @ 1 uM
O=C1NN=C(c2ccoc2)C1=Cc1c[nH]c2ccc(F)cc12 [Compound 19] | −5%
O=C1NN=C(c2ccco2)C1=Cc1cn(CCOCc2ccccc2)c2ccccc12 [Compound 71] | 3%
Cn1cc(C=C2C(=O)NN=C2c2nccs2)c2ccccc21 [Compound 60] | 9%
O=C1NN=C(c2ccco2)C1=Cc1c[nH]c2cccc(OCc3ccccc3)c12 [Compound 44] | −3%
COC(=O)c1ccc2[nH]cc(C=C3C(=O)NN=C3c3ccoc3)c2c1 [Compound 16] | 7%
Cc1ccc2c(C=C3C(=O)NN=C3c3ccn(C)c3)c[nH]c2c1 [Compound 33] | −13%
O=C1NN=C(c2ccoc2)C1=Cc1ccc[nH]1 [Compound 12] | −7%
Cc1cc(C)c(C=C2C(=O)NN=C2c2csc(-c3ccccc3)n2)[nH]1 [Compound 40] | −8%
Cc1cc(C)c(C=C2C(=O)NN=C2c2cccs2)[nH]1 [Compound 61] | −4%
N#CCCn1cc(C=C2C(=O)NN=C2c2cccs2)c2ccccc21 [Compound 66] | 5%
O=C1NN=C(c2ccoc2)C1=Cc1c[nH]c2ccc(OCc3ccccc3)cc12 [Compound 21] | −13%

Same assay, conditions: 1 uM compound; 100 μM ATP; read-out: MLK-2 Kinase % inhibition @ 1 uM

Structure (SMILES) | inhibition at 1 µM
O=C1NN=C(c2nccs2)C1=Cc1c[nH]c2ccccc12 [Compound 25, 4-(indol-3-ylmethylene)-3-(1,3-thiazol-2-yl)-2-pyrazolin-5-one] | -4%
O=C1NN=C(c2ccco2)C1=Cc1c[nH]c2ccccc12 [Compound 29, 3-(2-furyl)-4-(indol-3-ylmethylene)-2-pyrazolin-5-one] | 2%
Cc1cc(C)c(C=C2C(=O)NN=C2c2cnccn2)[nH]1 [Compound 74, 4-[(3,5-dimethylpyrrol-2-yl)methylene]-3-pyrazin-2-yl-2-pyrazolin-5-one] | 17%

Target: T3, baculoviral GST-MLK1KD (Homo sapiens, UniProt P80192)
T3 construct: 1 μg/ml of baculoviral GST-MLK1KD; GST (N); host or cells: baculovirus expression system
Test: Mixed Lineage Kinase-1 inhibition assay (Millipore Multiscreen TCA in-plate, 32P)
Type: biochemical
Conditions: 1 uM compound; 60 μM ATP
Method: Inhibition of Mixed Lineage Kinase-1 Activity
The kinase activity of MLK1 was assessed using the Millipore Multiscreen TCA “in-plate” format as described for protein kinase C (Pitt & Lee, J. Biomol. Screening, 1: 47-51, 1996). Briefly, each 50-μl assay mixture contained 20 mM Hepes, pH 7.0, 1 mM EGTA, 10 mM MgCl2, 1 mM DTT, 25 mM β-glycerophosphate, 60 μM ATP, 0.25 μCi [γ-^32P]ATP, 0.1% BSA, 500 μg/ml myelin basic protein (UBI #13-104), 2% DMSO, 1 μM of test compound, and 1 μg/ml of baculoviral GST-MLK1KD. Samples were incubated for 15 min at 37° C. The reaction was stopped by adding ice cold 50% TCA and the protein were allowed to precipitate for 30 min at 4° C. The plates were then washed with ice cold 25% TCA. Supermix scintillation cocktail was added, and the plates were allowed to equilibrate for 1-2 hours prior to counting using the Wallac MicroBeta 1450 PLUS scintillation counter.

T3 sequence (P80192 144-412 limits assumed): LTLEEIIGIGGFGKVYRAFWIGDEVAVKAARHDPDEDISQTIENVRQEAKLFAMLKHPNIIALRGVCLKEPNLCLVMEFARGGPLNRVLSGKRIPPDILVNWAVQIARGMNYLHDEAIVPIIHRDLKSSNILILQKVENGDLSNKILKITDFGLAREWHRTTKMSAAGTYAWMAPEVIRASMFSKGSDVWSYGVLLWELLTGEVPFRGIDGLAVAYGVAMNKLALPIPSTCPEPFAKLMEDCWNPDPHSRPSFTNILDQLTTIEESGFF

Structure (SMILES) | MLK-1 Kinase % inhibition @ 1 uM
O=C1NN=C(c2ccoc2)C1=Cc1c[nH]c2ccc(F)cc12 [Compound 19] | 4%
O=C1NN=C(c2ccco2)C1=Cc1cn(CCOCc2ccccc2)c2ccccc12 [Compound 71] | 9%
Cn1cc(C=C2C(=O)NN=C2c2nccs2)c2ccccc21 [Compound 60] | 37%
O=C1NN=C(c2ccco2)C1=Cc1c[nH]c2cccc(OCc3ccccc3)c12 [Compound 44] | 25%
COC(=O)c1ccc2[nH]cc(C=C3C(=O)NN=C3c3ccoc3)c2c1 [Compound 16] | 18%
Cc1ccc2c(C=C3C(=O)NN=C3c3ccn(C)c3)c[nH]c2c1 [Compound 33] | 8%
O=C1NN=C(c2ccoc2)C1=Cc1ccc[nH]1 [Compound 12] | 27%
Cc1cc(C)c(C=C2C(=O)NN=C2c2csc(-c3ccccc3)n2)[nH]1 [Compound 40] | 33%
Cc1cc(C)c(C=C2C(=O)NN=C2c2cccs2)[nH]1 [Compound 61] | 8%
N#CCCn1cc(C=C2C(=O)NN=C2c2cccs2)c2ccccc21 [Compound 66] | 11%
O=C1NN=C(c2ccoc2)C1=Cc1c[nH]c2ccc(OCc3ccccc3)cc12 [Compound 21] | 4%

Same assay, conditions: read-out: MLK-1 Kinase % inhibition @ 1 uM

Structure (SMILES) | inhibition at 1 µM
O=C1NN=C(c2nccs2)C1=Cc1c[nH]c2ccccc12 [Compound 25, 4-(indol-3-ylmethylene)-3-(1,3-thiazol-2-yl)-2-pyrazolin-5-one] | 11%
O=C1NN=C(c2ccco2)C1=Cc1c[nH]c2ccccc12 [Compound 29, 3-(2-furyl)-4-(indol-3-ylmethylene)-2-pyrazolin-5-one] | 21%
Cc1cc(C)c(C=C2C(=O)NN=C2c2cnccn2)[nH]1 [Compound 74, 4-[(3,5-dimethylpyrrol-2-yl)methylene]-3-pyrazin-2-yl-2-pyrazolin-5-one] | 44%
